{
  "source": "patent US20240307338A1",
  "about": "“USE OF PHARMACEUTICAL COMPOSITION CONTAINING CHLOROGENIC ACID IN PREPARATION OF MEDICAMENT FOR TREATING PATHOLOGIC JAUNDICE” (SICHUAN JIUZHANG BIOLOGICAL SCIENCE AND TECHNOLOGY CO., LTD., priority 2021, published 2024)",
  "format_in_all_cases": "in vivo, SD rats",
  "key": {"[1]": {"tested_on": "rat model of hemolytic jaundice (acetylphenylhydrazine-induced)", "experiment": "Activity assay of α-GST, ALT and AST in serum of rats with APH-induced hemolytic jaundice", "experimental": "(§1) Clean adult male SD rats, weighing 200 g-250 g. The following experiment was carried out mainly by referring to the method described in CN104739818A. In short, in the example, acetylphenylhydrazine (APH) was used as a modeling drug to construct a rat model of hemolytic jaundice, which was also a commonly used model for studying neonatal hemolytic jaundice at home and abroad. The most prominent feature of hemolytic jaundice was the collapse of the patient's red blood cells, causing hemolysis. […] At the same time, due to the rupture of red blood cells and the release of bilirubin, liver function was damaged. The mechanism and symptoms simulated by APH were similar to those of hemolytic jaundice. From 60 healthy SD rats with required body weight, 10 rats were randomly selected as the normal control group, and the remaining 50 rats were intraperitoneally injected with acetylphenylhydrazine (APH) at a dose of 150 mg/kg for 3 consecutive days, to construct the animal model of hemolytic jaundice induced by oxidation of red blood cells. […] 50 rats successfully modeled were randomly divided into 5 groups, 10 rats for each group, and the groups were respectively named as: model control group (n=10), CGA group (n=10), bifidobacteria+HMO group (n=10), CGA+bifidobacteria+HMO low-dose group (n=10), CGA+bifidobacteria+HMO high-dose group (n=10), together with the normal control group (n=10), a total of 6 experimental groups, including 60 rats. In the experiment, rats in each group were administered by gavage, while the blank group and the model group were given the solvent physiological saline by gavage. The administration time is 6 days. The composition and dosage of therapeutic drugs for each group were as follows: • (1) CGA group: CGA 60 mg/kg/day, administered by gavage with physiological saline as solvent. • (2) bifidobacteria+HMO group: Bifidobacterium brevis M16-V (6 mg/kg/day), lacto-N-neotetraose (3 mg/kg/day), and 6′-sialyllactose (3 mg/kg/day). The mixture of the above components was prepared according to the weight ratio, and using physiological saline as the solvent, the solution of the mixture was administered by gavage. • (3) CGA+bifidobacteria+HMO low-dose group: CGA (60 mg/kg/day), Bifidobacterium brevis M16-V (6 mg/kg/day), lacto-N-neotetraose (3 mg/kg/day), and 6′-sialyllactose (3 mg/kg/day). […] In this example, the activity of ALT (alanine aminotransferase) and AST (aspartate aminotransferase) was determined by rate method, while α-GST was detected using α-GST (α-glutathione s-transferase) detection kit; • (2) The blood sample stored in step (1) was taken out, and then bilirubin and direct bilirubin were detected by using the total bilirubin detection kit and the direct bilirubin detection kit."}, "[2]": {"tested_on": "rat model of hemolytic jaundice (acetylphenylhydrazine-induced)", "experiment": "Determination of total, direct and indirect bilirubin in rats with APH-induced hemolytic jaundice", "experimental": "as §1"}, "[3]": {"tested_on": "rat model of hemolytic jaundice (acetylphenylhydrazine-induced)", "experiment": "Detection of glutathione (GSH) by ELISA in rats with APH-induced hemolytic jaundice", "settings": "after 6 days of treatment, in words, compared with the model control group (data not shown)", "experimental": "Clean adult male SD rats, weighing 200 g-250 g. The following experiment was carried out mainly by referring to the method described in CN104739818A. In short, in the example, acetylphenylhydrazine (APH) was used as a modeling drug to construct a rat model of hemolytic jaundice, which was also a commonly used model for studying neonatal hemolytic jaundice at home and abroad. The most prominent feature of hemolytic jaundice was the collapse of the patient's red blood cells, causing hemolysis. […] At the same time, due to the rupture of red blood cells and the release of bilirubin, liver function was damaged. The mechanism and symptoms simulated by APH were similar to those of hemolytic jaundice. From 60 healthy SD rats with required body weight, 10 rats were randomly selected as the normal control group, and the remaining 50 rats were intraperitoneally injected with acetylphenylhydrazine (APH) at a dose of 150 mg/kg for 3 consecutive days, to construct the animal model of hemolytic jaundice induced by oxidation of red blood cells. […] In order to explore the mechanism for the possible therapeutic effect of CGA, the GSH level of rats in each group was detected in this example. […]"}, "[4]": {"settings": "after 6 days of treatment, in words, compared with the model control group"}, "[5]": {"settings": "serum, after 6 days of gavage, APH model rats, mean ± SD, n=10"}, "[6]": {"settings": "after 6 days of gavage, APH model rats, mean ± SD, n=10"}},
  "data": [
    {"smiles": "O=C(/C=C/c1ccc(O)c(O)c1)O[C@@H]1C[C@](O)(C(=O)O)C[C@@H](O)[C@H]1O", "note": "[CGA, 3-O-caffeoylquinic acid]", "values": [
      {"measurement": "levels of α-GST, ALT, and AST in serum", "setting": "[1]; [4]", "result": "significantly decreased"},
      {"measurement": "ALT", "setting": "[1]; [5]", "result": "26.5 ± 3.8", "unit": "U/L"},
      {"measurement": "AST", "setting": "[1]; [5]", "result": "29.8 ± 5.1", "unit": "U/L"},
      {"measurement": "α-GST", "setting": "[1]; [5]", "result": "20.9 ± 4.2"},
      {"measurement": "Direct bilirubin", "setting": "[2]; [6]", "result": "1.86 ± 0.85", "unit": "µmol/L"},
      {"measurement": "Indirect bilirubin", "setting": "[2]; [6]", "result": 1.51, "unit": "µmol/L"},
      {"measurement": "Total bilirubin", "setting": "[2]; [6]", "result": "3.37 ± 0.93", "unit": "µmol/L"},
      {"measurement": "levels of direct bilirubin, indirect bilirubin and total bilirubin", "setting": "[2]; [4]", "result": "significantly decreased"},
      {"measurement": "content of GSH in serum", "setting": "[3]", "result": "increased significantly"}
    ]}
  ]
}
